Results on one compound are retold here after patent US12359238B2 (priority 2017, dated 2025).

Test [1] addresses T1, FGM (FAD-GDH-MCD): Burkholderia cepacia FAD-GDH alpha subunit fused to minimal cytochrome domain MCR-2 of MamP (magnetoovoid bacterium MO-127), full DNA constru (Burkholderia lata, UniProt Q397F4).
T1 construct: gamma co-expressed; E. coli BL21
The format is biochemical.

For test [2], the system named is FGM-T558PDAz: FGM (Burkholderia cepacia FAD-GDH-MCD) variant T558PrK (T558X, SEQ ID NO: 22), clicked to PDAz linker. The conditions noted are these: read-out: KM^app (electrochemical); glucose; 300 mV vs. Ag/AgCl, 100 mM acetate buffer pH=5.0, RT; non-linear fit. As for the experimental part: (§1) The current from each glucose concentration (10 μM-10 mM) was measured in triplicates; curves of the mean currents are presented with standard deviations. […] The current was measured in triplicates and the mean current values were used for the linear regression and are presented with error bars (FIG. 18H);
(§2) Pyrrolysyl orthogonal translation system (pylOTS) DNA sequence was amplified from the pEVOL plasmid using polymerase chain reaction (PCR) and cloned into the backbone of pec86 plasmid using Gibson's assembly to generate a new plasmid called pec86-pylOTS (FIG. 15A). pylOTS allows the continuous expression of an orthogonal translation system (orthogonal tRNA and aminoacyl tRNA synthetase) for incorporation of PrK (1) using the amber (TAG) stop codon suppression, while the pec86 plasmid is responsible for the continuous expression of E. coli cytochrome c maturation system. […] Four different TAG mutants were planned using site-directed mutagenesis, according to GDH crystal structure. Our guiding rational for mutation sites was to control the enzyme orientation in a manner that will allow proximity of 14 Å or less between the FAD or heme site and the electrode, without interference with the protein structure and correct folding. The sites that were tested were R42TAG and S247TAG, which are in close proximity to the FAD binding-site, while T558TAG (FIG. 11C, right panel) is in a close proximity to the heme domain.
(§3) The azide in (2) was clicked to the alkyne residue of (FIG. 11B, 1). 3 μM of protein sample was mixed with 400 μM (2), 2 mM tris pH=8.2, 10 mM KCl, 1 mM Cu(I), 1.2 mM THPTA, 2.5 mM NaAsc and 10% Dimethyl sulfoxide (DMSO). The reaction was incubated for 1 h in the dark at room temperature with shaking, then transferred to 4° C. for two days before use.

In test [3] the target is FGM-S247PCA: FGM (Burkholderia cepacia FAD-GDH-MCD) variant S247PrK (S247X, SEQ ID NO: 20), EDC-NHS coupled to PCA linker (Burkholderia lata, UniProt Q397F4). As to conditions: read-out: KM^app (electrochemical); glucose; 300 mV vs. Ag/AgCl, 100 mM acetate buffer pH=5.0, RT; non-linear fit. As for the experimental part:
as §1, §2, §3

Test [4] concerns the target FGM-S247PDAz: FGM (Burkholderia cepacia FAD-GDH-MCD) variant S247PrK (S247X, SEQ ID NO: 20), clicked to PDAz linker (Burkholderia lata, UniProt Q397F4). The conditions noted are these: read-out: KM^app (electrochemical); glucose; 300 mV vs. Ag/AgCl, 100 mM acetate buffer pH=5.0, RT; non-linear fit. How it is done:
as §1, §2, §3

The target in test [5] is GDH-S247PDAz: Burkholderia cepacia FAD-GDH variant S247PrK lacking the MCD domain, clicked to PDAz linker (Burkholderia lata, UniProt Q397F4). The conditions noted are these: read-out: KM^app (electrochemical); glucose; 300 mV vs. Ag/AgCl, 100 mM acetate buffer pH=5.0, RT; non-linear fit. How it is done:
as §1, §2, §3

SMILES strings stand for the structures.

By Km is commonly meant the concentration of substrate that gives half-maximal velocity.

Turning to `OC[C@H]1OC(O)[C@H](O)[C@@H](O)[C@@H]1O` (stereo partly drawn) [glucose], the “KM^app value times higher for FGM compared to GDH” value in test [1] is “ca. 3 times”. For the same compound, the “catalytic efficiency (k) times higher compared to GDH” value in test [1] (FGM compared to GDH, D-glucose) was “more than 3 times”. For the same compound, the Km in test [2] is 1580 ± 220 µM; in test [3], 1820 ± 180 µM; in test [4], 1890 ± 100 µM; in test [5] it was 1550 ± 160 µM.
